Experiment [1] concerns the target T1, Human R protein (Human R) (Homo sapiens, UniProt P20061).
T1 construct: from tissue; host or cells: human saliva
T1 sequence (P20061 24-433): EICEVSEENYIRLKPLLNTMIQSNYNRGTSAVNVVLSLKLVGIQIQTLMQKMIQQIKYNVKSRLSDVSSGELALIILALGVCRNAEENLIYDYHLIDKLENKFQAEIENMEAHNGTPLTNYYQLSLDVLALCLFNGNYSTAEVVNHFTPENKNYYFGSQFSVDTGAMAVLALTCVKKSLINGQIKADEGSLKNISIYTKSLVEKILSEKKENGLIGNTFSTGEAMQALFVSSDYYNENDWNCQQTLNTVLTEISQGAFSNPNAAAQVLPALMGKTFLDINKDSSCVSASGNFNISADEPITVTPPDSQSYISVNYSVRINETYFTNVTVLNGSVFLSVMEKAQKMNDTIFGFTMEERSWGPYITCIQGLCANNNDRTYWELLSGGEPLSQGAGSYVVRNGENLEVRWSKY
Nature of the experiment: Radioisotope dilution (RID) radiobinding assay for vitamin B12, Human R binder. It counts as binding. The note with it: 500 pg added to human serum in the dark, 15 min incubation, standard extraction. As for the experimental part:
(§1) Each of the RID assays referred to herein utilized the components referred to above. That is, components A, B, C, etc. or the buffer, albumin, and salt, respectively, etc. were added in the order, from left to right, shown in Table 1.
(§2) After the addition of ^57 Co-B12 the components are mixed thoroughly to mix both the naturally occurring B12 and the radioisotope B12 to make them compete and equally available to react with the binder. After the addition of the binder, H, the components were again mixed thoroughly, and then incubated for 45 minutes at about 37° C. Charcoal was then added to the incubated mixture and the components again mixed thoroughly and incubated for another 5 minutes at room temperature. This was followed by centrifuging at 2000×g at 4° C. for 30 minutes. Then 1000 ul of the resulting supernatant liquid is pipetetted from the sample and a determination of the amount of ^57 Co-B12 present is made. The amount of ^57 Co-B12 is indicative of the amount of natural B12 in the tested sample, with lesser amounts of ^57 Co-B12 being indicative of greater amounts of natural vitamin B12 in the sample.
(§3) (1) The values in tubes 3 and 4, the "blank" tubes without binder are averaged and subtracted from all other tubes starting with tube 5.
(§4) (2) The background radiation is subtracted from tubes 1 and 2 and these values are averaged.
(§5) (3) Tubes 5 and 6 are averaged. This value should be at least 15% below the average value for tubes 1 and 2 to insure that all of the binder is saturated in the presence of (^57 Co) B12 alone.
(§6) (4) Values for each tube beginning with tube 7 are divided by the average of tubes 5 and 6 to give values for "% trace binding."
(§7) (5) Percent trace binding for tubes 7-14 are used to obtain a standard curve. We plot % trace binding on the ordinate of logit-log paper versus pg vitamin B12 on the log scale.
(§8) (6) The amount of vitamin B12 in unknown samples is determined by interpolation from the standard curve or data of % trace binding versus pg vitamin B12. […]

Experiment [2] concerns the target Human intrinsic factor (Human IF) (Homo sapiens, UniProt P27352). The experiment in a line: Radioisotope dilution (RID) radiobinding assay for vitamin B12, Human IF binder. It is filed as binding. The note with it: 500 pg added to human serum in the dark, 15 min incubation, standard extraction. Here is the method:
as §1, §2, §3, §4, §5, §6, §7, §8

Chain of Human intrinsic factor (Human IF) (P27352 19-417): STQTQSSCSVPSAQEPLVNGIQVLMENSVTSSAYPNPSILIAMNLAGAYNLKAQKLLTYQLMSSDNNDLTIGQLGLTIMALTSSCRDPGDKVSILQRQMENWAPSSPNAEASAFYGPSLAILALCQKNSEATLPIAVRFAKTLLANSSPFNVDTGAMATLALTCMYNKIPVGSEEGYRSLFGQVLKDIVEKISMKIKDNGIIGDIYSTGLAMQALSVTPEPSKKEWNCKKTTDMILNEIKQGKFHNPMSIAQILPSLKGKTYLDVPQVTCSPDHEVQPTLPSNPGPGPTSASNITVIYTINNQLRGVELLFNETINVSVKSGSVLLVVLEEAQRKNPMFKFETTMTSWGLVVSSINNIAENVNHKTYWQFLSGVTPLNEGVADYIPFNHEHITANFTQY

Regarding `C/C1=C2/[N-][C@H]([C@H](CC(N)=O)[C@@]2(C)CCC(=O)NC[C@@H](C)OP(=O)([O-])O[C@H]2[C@@H](O)[C@@H](n3cnc4cc(C)c(C)cc43)O[C@@H]2CO)[C@]2(C)N=C(/C(C)=C3N=C(/C=C4N=C1[C@@H](CCC(N)=O)C\4(C)C)[C@@H](CCC(N)=O)[C@]\3(C)CC(N)=O)[C@@H](CCC(N)=O)[C@]2(C)CC(N)=O.[Co+3].[OH-]` [OH-B12], the “increase in the apparent amount of vitamin B12, RID with human R protein” value (“increase … with human R protein” below) in experiment [1] is “about 500 pg”. Moreover, in experiment [2], the “increase in the apparent amount of vitamin B12, RID with human IF protein” value (“increase … with human IF protein” for short) is on record as “about 500 pg”.
Regarding `C/C1=C2/[N-]C([C@H](CC(N)=O)[C@@]2(C)CCC(=O)NC[C@@H](C)OP(=O)([O-])O[C@H]2[C@@H](O)[C@@H](n3cnc4cc(C)c(C)cc43)O[C@@H]2CO)[C@]2(C)N=C(/C(C)=C3N=C(/C=C4N=C1[C@@H](CCC(N)=O)C\4(C)C)[C@@H](CCC(N)=O)[C@]\3(C)CC(N)=O)[C@@H](CCC(N)=O)[C@]2(C)CC(N)=O.[CH2-][C@H]1O[C@@H](n2cnc3c(N)ncnc32)[C@@H](O)[C@@H]1O.[Co+3]` [adenosyl-B12], the “increase … with human R protein” value in experiment [1] was “about 500 pg”. In experiment [2], the “increase … with human IF protein” value was “about 500 pg”.
Turning to CH3 -B12, the “increase … with human R protein” value in experiment [1] is “about 500 pg”. The “increase … with human IF protein” value in experiment [2] was “about 500 pg”.

For the origin of these results see patent US4351822A, “Quantitative testing for vitamin B12” (University Patents, Inc., priority 1979, dated 1982).
